Laboratory results reported in publication PMC10754118, “Lipophilic Nucleoside Triphosphate Prodrugs of Anti‐HIV Active Nucleoside Analogs as Potential Antiviral Compounds” (Advanced Science, 2023).
Like-named read-outs stand apart in the source and are kept apart here.

How the values were obtained:
[1] = Chemical hydrolysis in phosphate buffer saline (PBS, pH 7.3); format: physicochemical; settings: PBS pH 7.3, 37 °C, read-out: PBS pH 7.3 t 1/2 (converted)
Experimental: (§1) Part 4. Chemical Hydrolysis of TriPPPro-compounds 10 and 20.
Second prepare 1.9 mM hydrolysis […]
(§2) Then, aliquots of 50 µL human

in vitro [2] = settings: human
Experimental: The hydrolysis properties of TriPPPro‐compounds 10 and 20 were evaluated in phosphate buffer saline (PBS, pH 7.3), pig liver esterase (PLE) or CEM/0 cell extracts. In both cases, hydrolysis products were analyzed by means of analytical RP18‐HPLC and the hydrolysis half‐lives (Table 1 , t1/2 ) of TriPPPro‐compounds 10 and 20 were calculated after complete consumption of the starting materials.
The hydrolysis of TriPPPro‐compounds 10 and 20 was carried out with CEM/0 cell extracts as well. […]
Part 6. Enzyme-Catalyzed Hydrolysis of TriPPPro-compounds 10 and 20 in CEM Cell […]
First prepare 3.0 mM hydrolysis solutions of Tri PPPro-compounds 10 and 20 in DMSO and H2O: 21 µL stock solution (50 mM in DMSO) and 154 µL DMSO, and 175 µL Milli-Q water. Three-twelve different samples (20 µL 3.0 mM hydrolysis solutions) were prepared in 2 mL Eppendorf® vials. Then, aliquots of 50 µL human CEM cell extracts were added to these samples and the reaction was started. The samples were incubated at 37 °C in a thermomixer for different time periods. The reaction was stopped by addition of 150 µL MeOH and kept on ice for 5 min. After centrifugation at 14,000 rpm for 12 min, the supernatants were filtered (Chromafil RC-20/15 MS, 0.2 μm) and stored in liquid nitrogen. When testing, aliquots of 60 µL (injection volume) were analyzed by analytical HPLC (HPLC Method). The calculation of t1/2 was obtained using Origin again.
(§3) Part 7. Hydrolysis of TriPPPro-compounds 10 and 20 in human plasma.
µL 3.0 mM hydrolysis solutions) were prepared in 2 mL Eppendorf® vials.

pig liver esterase (PLE) = assay: Hydrolysis with pig liver esterase (PLE); format: in vitro ADME; settings: pig liver esterase (PLE) in PBS, PLE in PBS pH 7.3, 37 °C, read-out: PLE t 1/2 (converted)
Text: Next, TriPPPro‐compounds 10 and 20 were exposed to PLE in PBS (pH 7.3) and the half‐lives of TriPPPro‐compounds 10 and 20 are listed in Table 1. […] In contrast, the cleavage of the AB (C4) masking group in TriPPPro‐compounds 10by–hy and 10bz–hz was triggered by ester hydrolysis and yielded the corresponding γ‐alkylated nucleoside triphosphate derivatives 20 (Figure 3B,D) and 21 (Figures S17 and S18, Supporting Information), respectively. […] Moreover, a very small amount of NDPs was observed, probably due to a reaction involving a nucleophilic reaction at the γ‐phosphate or γ‐phosphonate moiety (pathways d and f, Scheme 5). […]
as §1
Second prepare 1.9 mM hydrolysis
Part 5. Hydrolysis of TriPPPro-compounds 10 and 20 with PLE .
Second, 125 µL DMSO and 833 µL
62.5 µL of PLE solution in PBS (100
mixture was stored in the freezer (- 30 °C).
by analytical HPLC (HPLC Method).
similar to that for the chemical hydrolysis studies. […]
as §2

in vitro [3] = settings: human, plasma
Experimental: First prepare 50 mM solutions of TriPPPro-compounds 10 and 20 in DMSO. […]
First prepare 3.0 mM hydrolysis solutions of Tri PPPro-compounds 10 and 20 in DMSO and H2O: 21 µL stock solution (50 mM in DMSO) and 154 µL DMSO, and 175 µL Milli-Q water. Three-twelve different samples (20 […]
The calculation of t1/2 was obtained using Origin again.
as §3
µL 3.0 mM hydrolysis solutions) were prepared in 2 mL Eppendorf® vials. Then, aliquots of 50 µL human Plasma (Heparin or Citrate) were added to these samples and the reaction was started. The samples were […]
incubated at 37 °C in a thermomixer for different time periods. The reaction was stopped by addition of 150 µL MeOH and kept on ice for 5 min. After centrifugation at 14,000 rpm for 22 min, the supernatants were filtered (Chromafil RC-20/15 MS, 0.2 μm) and stored in liquid nitrogen. When testing, aliquots of 25 0r 30 µL (injection volume) were analyzed by analytical HPLC (HPLC Method). The calculation of t1/2 was obtained using Origin […]
Part 8. Preparation of cell extracts and human plasma. […]

HIV‐1 [HE] = assay: Anti-HIV activity, HIV-1 in wild-type CEM/0 cells; format: cell-based; settings: for EC50: Human immunodeficiency virus 1, CCRF-CEM, read-out: Antiviral activity CEM/0 HIV‐1 [HE] EC50
HIV‐2 [ROD] = assay: Anti-HIV activity, HIV-2 in wild-type CEM/0 cells; format: cell-based; settings: for EC50: Human immunodeficiency virus 2, CCRF-CEM, read-out: Antiviral activity CEM/0 HIV‐2 [ROD] EC50
Experimental: (§4) Part 9. Anti-HIV activity assay.
(§5) The produce was used as previously reported. 5 Inhibition of HIV-1(IIIB)- and HIV-2(ROD)-induced cytopathogenicity in wild-type CEM/0 and thymidine kinase-deficient CEM/TK– cell cultures was measured in […]
(§6) containing appropriate dilutions of the test compounds. After 4−5 days of incubation at 37 °C in a CO2-controlled humidified atmosphere, CEM giant (syncytium) cell formation was examined microscopically. The […]
(§7) giant cell formation by 50%.
(§8) Part 10. Primer-extension assays. […]

HIV‐2 [ROD)] = assay: Anti-HIV activity, HIV-2 in thymidine kinase-deficient CEM/TK^− cells; format: cell-based
Experimental: as §4, §5, §6, §7, §8

in vitro [4] = settings: human, CEM/0 cells (wild-type CD4+ T-cells)
Experimental: All TriPPPro‐compounds 10 and 20, as well as their parent nucleosides and the corresponding NTPs, were evaluated for their antiviral activity (expressed as EC50 values) against HIV‐1 (wild‐type CEM/0 cells) and HIV‐2 (wild‐type CEM/0 cells and thymidine kinase‐deficient (CEM/TK^−) cells) with concomitant determination of cytotoxicity in the same cell line (Table 3 ).

[5] = t 1/2 in human plasma (over heparin and citrate plasma)
[6] = wild-type CEM/0 cells, mean ±SD n = 2–3
[7] = Human immunodeficiency virus 2, CEM-TK(-), thymidine kinase-deficient CEM/TK^− cells, mean ±SD n = 2–3; read-out: Antiviral activity CEM/TK^− HIV‐2 [ROD)] EC50
[8] = wild-type CEM/0 cells, vs parent nucleoside

Structure (SMILES) | half-life at 1.9 mM [1] | half-life at 0.86 mM (in vitro [2]) | half-life at 0.45 mM (pig liver esterase (PLE)) | half-life at 0.86 mM (in vitro [3]; Plasma (Citrate) t 1/2) | half-life at 0.86 mM (in vitro [3]; Plasma (Heparin) t 1/2) | half-life at 0.86 mM (in vitro [3]; [5]) | EC50 (HIV‐1 [HE]; [6]) | EC50 (HIV‐2 [ROD]; [6]) | EC50 (HIV‐2 [ROD)]; [7]) | CC50 (in vitro [4]) | fold improvement compared to cycloSal‐ABCMP, HIV-1 (HIV‐1 [HE]; wild-type CEM/0 cells) | fold higher activity than the parent nucleoside, HIV-1 (HIV‐1 [HE]; [8]) | fold improvement compared to cycloSal‐ABCMP, HIV-2 (HIV‐2 [ROD]; wild-type CEM/0 cells) | fold higher activity than the parent nucleoside, HIV-2 (HIV‐2 [ROD]; [8]) | fold improved activity compared to the parent nucleoside, HIV-2 (HIV‐2 [ROD)]; CEM/TK^− cells, vs parent nucleoside) | fold higher activity compared to the corresponding compound 20 (HIV‐2 [ROD)]; HIV-2, CEM/TK^− cells, vs 20h) | improvement of antiviral activity in CEM/TK^− cells compared to wild-type CEM/0 cells (HIV‐2 [ROD)]; same compound, CEM/TK^− vs CEM/0) | EC50 (HIV‐1 [HE]) | EC50 (HIV‐2 [ROD]) | EC50 (HIV‐2 [ROD)]; Human immunodeficiency virus 2, CEM-TK(-), read-out: Antiviral activity CEM/TK^− HIV‐2 [ROD)] EC50)
CCCCCCCCCCCCCCCCCCOP(=O)(OCCCC)OP(=O)(O)OP(=O)(O)OC[C@H]1O[C@@H](n2cc(C)c(=O)[nH]c2=O)C[C@@H]1N=[N+]=[N-] (stereo partly drawn) [10bv, γ‐(alkyl‐C4;alkyl‐C18)‐AZTTP] | > 83.3 days | > 30 h | > 150 h | > 20 h | > 20 h | > 8 h | 41 ± 19 nM | 26 ± 7 nM | 290 ± 150 nM | 64900 nM | – | – | – | – | – | – | – | – | – | –
CCCCCCCCCCCCCCCCCCOP(=O)(OCc1ccc(OC(=O)CCCC)cc1)OP(=O)(O)OP(=O)(O)OCC1OC(n2cc(C)c(=O)[nH]c2=O)CC1N=[N+]=[N-] (stereo not drawn) [10by, γ‐(AB‐C4;alkyl‐C18)‐AZTTP] | 17.4 days | 3.3 h | 0.22 h | 3.7 h | 5.2 h | – | 190 ± 120 nM | 5.2 ± 4.1 nM | 500 ± 350 nM | 60100 nM | – | – | – | – | – | – | – | – | – | –
CCCCCCCCCCCCCCCCCCP(=O)(OCc1ccc(OC(=O)CCCC)cc1)OP(=O)(O)OP(=O)(O)OC[C@H]1O[C@@H](n2cc(C)c(=O)[nH]c2=O)C[C@@H]1N=[N+]=[N-] (stereo partly drawn) [10bz, γ‐(AB‐C4)‐γ‐C‐(alkyl‐C18)‐AZTTP] | 41 days | 8 h | 0.25 h | 4.4 h | 7.6 h | 4.4 to 7.6 h | 150 ± 150 nM | 7.5 ± 8.1 nM | 310 ± 26 nM | 58900 nM | – | – | – | – | – | – | – | – | – | –
CCCCCCCCCCCCCCCCCCOP(=O)(OCCCC)OP(=O)(O)OP(=O)(O)OC[C@@H]1C=C[C@H](n2cnc3c(NC4CC4)nc(N)nc32)C1 (stereo partly drawn) [10hv, γ‐(C4;C18)‐ABCTP] | 10.5 days | 3 h | > 150 h | > 20 h | > 8 h | > 8 h | 24 ± 1.4 nM | 46 ± 16 nM | 4.8 ± 2.1 nM | 39000 ± 4700 nM | 30 fold | ~400 fold | 16 fold | 80 fold | 410 fold | 33 fold | tenfold | – | – | –
CCCCCCCCCCCCCCCCCCP(=O)(OCCCC)OP(=O)(O)OP(=O)(O)OC[C@@H]1C=C[C@H](n2cnc3c(NC4CC4)nc(N)nc32)C1 (stereo partly drawn) [10hx] | > 41.7 days | > 10 h | > 150 h | > 20 h | > 20 h | > 8 h | – | – | – | 38600 nM | – | – | – | – | – | – | – | 150 ± 140 nM | 44 ± 33 nM | 5.8 nM
CCCCCCCCCCCCCCCCCCP(=O)(OCc1ccc(OC(=O)CCCC)cc1)OP(=O)(O)OP(=O)(O)OC[C@@H]1C=C[C@H](n2cnc3c(NC4CC4)nc(N)nc32)C1 (stereo partly drawn) [10hz, γ‐(AB‐C4)‐γ‐C‐(alkyl‐C18)‐ABCTP] | 22.2 days | 7.7 h | 1.11 h | 5.6 h | 4.1 h | 4.1 to 5.6 h | 200 nM | 170 ± 64 nM | 19 ± 1 nM | 38200 ± 1300 nM | – | – | – | – | – | – | – | – | – | –
CCCCCCCCCCCCCCCCCCOP(=O)(O)OP(=O)(O)OP(=O)(O)OCC1OC(n2cc(C)c(=O)[nH]c2=O)CC1N=[N+]=[N-] (stereo not drawn) [20b, γ‐(alkyl‐C18)‐AZTTP] | > 83.3 days | > 30 h | > 150 h | > 20 h | 3.7 h | – | 28 ± 31 nM | 30 ± 1 nM | 4100 ± 2600 nM | > 100000 nM | – | – | – | – | – | – | – | – | – | –
